One may read the Kd as the free concentration of one partner at which half of the binding sites on the other are occupied at equilibrium, for simple one-to-one binding. Read a high Kd as lower affinity.

Structures are written as SMILES. Some results are limits rather than exact numbers.

From patent publication US20050192314A1, “Urea derivatives as C-kit modulators” (Ambit Biosciences Corporation, priority 2003, published 2005) come the findings set out here.

The target of this assay is T1, KIT(DKIN) (Homo sapiens, UniProt P10721).
T1 construct: KIT(DKIN); made in house
T1 sequence (P10721 589-937 limits assumed): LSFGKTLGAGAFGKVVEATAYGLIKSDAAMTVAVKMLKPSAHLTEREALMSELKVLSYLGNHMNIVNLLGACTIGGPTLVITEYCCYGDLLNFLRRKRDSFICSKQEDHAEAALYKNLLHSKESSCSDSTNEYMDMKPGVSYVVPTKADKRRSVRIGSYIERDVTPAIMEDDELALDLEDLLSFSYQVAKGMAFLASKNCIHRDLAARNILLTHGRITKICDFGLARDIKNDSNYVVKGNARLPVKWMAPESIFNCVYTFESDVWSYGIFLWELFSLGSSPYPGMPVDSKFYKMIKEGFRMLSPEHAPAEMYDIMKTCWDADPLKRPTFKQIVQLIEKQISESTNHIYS
Briefly: Binding constant (Kd) measurement, phage-displayed kinase competition binding assay: KIT(DKIN). An excerpt: The term “ND” represents non-determined values.
The compound `CC(C)(C)c1cc(NC(=O)Nc2ccc(OCCN3CCOCC3)c3ccccc23)no1` [Compound K1] displayed a Kd of 1 to 10 µM.

Consider `CC(C)(C)c1cc(NC(=O)Nc2ccc(NC(=O)c3ccnc4ccccc34)cc2)no1` [Compound N141], for which the dissociation constant (Kd) was 0.1 to 1 µM.

In the case of `CC(C)(C)c1cc(NC(=O)Nc2ccc(-c3ccccc3)cc2)no1` [Compound A23], the equilibrium dissociation constant (Kd) lay in the range of 0.1 to 1 µM.

Turning to `CC(C)(C)c1cc(NC(=O)Nc2ccc(NC(=O)c3cc4cc(Br)ccc4s3)cc2)no1` [Compound N126], the Kd fell in the range of 1 to 10 µM.

Consider `Cn1nc(-c2ccccc2)c(C(=O)Cc2ccc(NC(=O)Nc3cc(C(C)(C)C)on3)cc2)c1Cl` [Compound N11], for which the Kd was > 10 µM.

`CC(C)(C)c1cc(NC(=O)Nc2ccc(NC(=O)c3c4ccccc4nc4ccccc34)cc2)no1` [Compound N148] displayed a Kd of 1 to 10 µM.

The compound `C/C=C/C(=O)Nc1ccc(NC(=O)Nc2cc(C(C)(C)C)on2)cc1` [Compound N93] returned a Kd of 1 to 10 µM.

Regarding `CC(C)(C)c1cc(NC(=O)Nc2ccc(NC(=O)c3ccncc3)cc2)no1` [Compound N167], the Kd was in the range of 0.1 to 1 µM.

As for `Cn1cc(C(=O)Nc2ccc(NC(=O)Nc3cc(C(C)(C)C)on3)cc2)c2ccccc21` [Compound N119], the Kd was 0.1 to 1 µM.

`CC(C)(C)c1cc(NC(=O)Nc2ccc(NC(=O)c3cc([N+](=O)[O-])ccn3)cc2)no1` [Compound N7]: the Kd was < 0.1 µM.

`CC(C)(C)c1cc(NC(=O)Nc2ccc3cc4ccccc4cc3c2)no1` [Compound A18] came in with a Kd of 1 to 10 µM.

`CCOC(=O)CCc1c(C)[nH]c(C(=O)Nc2ccc(NC(=O)Nc3cc(C(C)(C)C)on3)cc2)c1C` [Compound N83] displayed a Kd of 0.1 to 1 µM.

In turn, `CC(C)(C)c1cc(NC(=O)Nc2ccc(NC(=O)c3c[nH]c(=O)nc3-c3ccncc3)cc2)no1` [Compound N19] gave a Kd of 1 to 10 µM.

Consider `Cc1ccc(COc2ccc(NC(=O)Nc3cc(C(C)(C)C)on3)cc2)cc1` [Compound G15], for which the Kd lay in the range of 0.1 to 1 µM.

Take `Cc1c(Cl)cccc1NC(=O)Nc1cc(C(C)(C)C)on1` [Compound A5]: the equilibrium dissociation constant (Kd) is 1 to 10 µM.

As to `CC(C)(C)c1cc(NC(=O)Nc2ccc(C(=O)NCc3ccccc3)cc2)no1` [Compound N89], the Kd lay in the range of 0.1 to 1 µM.

Regarding `CC(C)(C)c1cc(NC(=O)Nc2ccc(C(=O)Nc3ccc(OCC4CCC4)cc3)cc2)no1` [Compound N100], the Kd lay within 0.1 to 1 µM.

Turning to `COC(=O)c1ccc(C(=O)Nc2ccc(NC(=O)Nc3cc(C(C)(C)C)on3)cc2)nc1` [Compound N12], the Kd is 0.1 to 1 µM.

As to `CC(C)(C)c1cc(NC(=O)Nc2ccc(NC(=O)c3cccc4nsnc34)cc2)no1` [Compound N21], the Kd was < 0.1 µM.

Take `CC(C)(C)c1cc(NC(=O)Nc2ccc(OCCN3CCSCC3)cc2)no1` [Compound G53]: the Kd is 1 to 10 µM.

Turning to `CC(C)(C)c1cc(NC(=O)Nc2ccc(OC/C=C/c3ccccc3Cl)cc2)no1` [Compound G26], the Kd lay in the range of 0.1 to 1 µM.

Turning to `Cc1ccc(-n2nc(C(C)(C)C)cc2NC(=O)Nc2ccc(OCc3ccccc3)cc2)cc1` [Compound H5], the dissociation constant Kd is > 10 µM.

On to `CC(C)(C)c1cc(NC(=O)Nc2ccc(OCc3ccc4ccccc4c3)cc2)no1` [Compound G3], for which the Kd was 0.1 to 1 µM.

Regarding `CC(C)(C)c1cc(NC(=O)Nc2ccc(OCc3ccc(F)cc3)cc2)no1` [Compound G35], the Kd is < 0.1 µM.

For `CC(C)(C)c1cc(NC(=O)Nc2ccc(NC(=O)c3cccnc3)cc2)no1` [Compound N1], the Kd lay within 0.1 to 1 µM.

For `Cn1nc(C2CC2)cc1NC(=O)Nc1ccc(OCc2ccccc2)cc1` [Compound H7], the Kd is > 10 µM.

Turning to `CC(C)(C)c1cc(NC(=O)Nc2ccc(NC(=O)c3cnccn3)cc2)no1` [Compound N136], the Kd was < 0.1 µM.

`CC(C)(CO)c1cc(NC(=O)Nc2ccc(Cl)cc2)on1` [Compound A22] showed a dissociation constant Kd of 1 to 10 µM.

`Cn1nc(-c2ccccc2)c2cc(C(=O)Nc3ccc(NC(=O)Nc4cc(C(C)(C)C)on4)cc3)sc21` [Compound N5] displayed a Kd of 0.1 to 1 µM.

`CC1CCCN(CCOc2ccc(NC(=O)Nc3cc(C(C)(C)C)on3)cc2)C1` (centres unmarked) [Compound G44]: the Kd is > 10 µM.

`CC(C)(C)c1cc(NC(=O)Nc2ccc(OCc3ccc(F)cc3Cl)cc2)no1` [Compound G18] returned a Kd of 0.1 to 1 µM.

The compound `CC(C)(C)c1cc(NC(=O)Nc2ccc(NC(=O)c3ccc(Cl)cc3Cl)cc2)no1` [Compound N130] had a dissociation constant (Kd) of 1 to 10 µM.

`CC(C)(C)c1cc(N2CCCN(c3ccc(OCc4ccccc4)cc3)C2=O)on1` [Compound E2] gave a Kd of 1 to 10 µM.

Take `CC(C)(C)c1cc(NC(=O)Nc2ccc(NC(=O)c3cn4cc(Cl)ccc4n3)cc2)no1` [Compound N3]: the Kd was < 0.1 µM.

`COc1cccc(CNC(=O)Nc2cc(C(C)(C)C)on2)c1` [Compound B3] came in with a Kd of 1 to 10 µM.

With `CC(C)(C)c1cc(NC(=O)Nc2ccc(Cl)cc2Cl)no1` [Compound A7], the Kd lay in the range of 1 to 10 µM.

`CCc1ccc(C(=O)Nc2ccc(NC(=O)Nc3cc(C(C)(C)C)on3)cc2)cc1` [Compound N32] had an equilibrium dissociation constant (Kd) of 0.1 to 1 µM.

Compound `CC(C)(C)c1cc(NC(=O)Nc2ccc(NC(=O)c3ncccc3C(N)=O)cc2)no1` [Compound N6] gave a Kd of 1 to 10 µM.

With `CC(C)(C)c1cc(NC(=O)Nc2ccc(NC(=O)c3cnc4ccccc4n3)cc2)no1` [Compound N149], the dissociation constant Kd lay within 1 to 10 µM.

Regarding `COc1ccc(NC(=O)Nc2cc(C(F)(F)F)cc(Cl)n2)cc1` [Compound Z71], the dissociation constant Kd lay in the range of 0.1 to 1 µM.

As for `CC(C)(C)c1cc(NC(=O)Nc2ccc(NC(=O)CC(N)c3ccccc3Cl)cc2)no1` (centres unmarked) [Compound N44], the Kd was in the range of 1 to 10 µM.

Regarding `CC(C)(C)c1cc(NC(=O)Nc2ccc(C(=O)NCCO)cc2)no1` [Compound N87], the Kd is 0.1 to 1 µM.

Consider `Cc1ccc(-n2nc(C(C)(C)C)cc2NC(=O)Nc2cc(C(C)(C)C)on2)cc1` [Compound H11], for which the Kd was > 10 µM.

Turning to `CC(C)Oc1ccc(NC(=O)Nc2cc(C(C)(C)C)no2)cc1` [Compound G33], the Kd was < 0.1 µM.

As to `CC(C)(C)c1cc(NC(=O)Nc2ccc(OCc3ccc(C(F)(F)F)cc3)cc2)no1` [Compound G6], the Kd lay in the range of 0.1 to 1 µM.

The compound `CC(C)(C)c1cc(NC(=O)Nc2ccc(NC(=O)c3cc(Cl)cc(Cl)c3)cc2)no1` [Compound N29] returned a Kd of 0.1 to 1 µM.

Regarding `CC(C)(C)c1cc(NC(=O)Nc2ccc(NC(=O)c3ccccc3Cl)cc2)no1` [Compound N23], the Kd was < 0.1 µM.

For `CC(C)(C)c1cc(NC(=O)Nc2ccc(NC(=O)c3cc4cc(Br)ccc4s3)cc2)no1` [Compound N17], the Kd fell in the range of 0.1 to 1 µM.

For `Cc1sc(NC(=O)Nc2ccc(Cl)cc2)c(C(N)=O)c1C` [Compound Z58], the Kd fell in the range of 0.1 to 1 µM.

As for `Cc1nc(C(=O)Nc2ccc(NC(=O)Nc3cc(C(C)(C)C)on3)cc2)nn1-c1cc(Cl)cc(Cl)c1` [Compound N15], the dissociation constant (Kd) was > 10 µM.

For the compound `CC(C)(C)c1cc(NC(=O)Nc2ccc(NC(=O)Cc3csc4ccccc34)cc2)no1` [Compound N107], the Kd was 1 to 10 µM.

In turn, `COc1ccc(-c2noc(-c3ccc(NC(=O)Nc4cc(C(C)(C)C)on4)cc3)n2)c2ccccc12` [Compound P3] yielded a Kd of 1 to 10 µM.

For the compound `COC(=O)c1ccc(C(=O)Nc2ccc(NC(=O)Nc3cc(C(C)(C)C)on3)cc2)nc1` [Compound N113], the dissociation constant Kd was < 0.1 µM.

On to `CC(C)(C)c1cc(NC(=O)Nc2ccc(OCCc3ccncc3)cc2)no1` [Compound G22], for which the Kd was < 0.1 µM.

The compound `COC(=O)c1cccc(COc2ccc(NC(=O)Nc3cc(C(C)(C)C)on3)cc2)c1` [Compound G7] came in with a dissociation constant (Kd) of 0.1 to 1 µM.

With `CC(C)(C)c1cc(NC(=O)Nc2ccc(NC(=O)c3csc(-c4ccc(Cl)cc4)n3)cc2)no1` [Compound N124], the Kd fell in the range of 0.1 to 1 µM.

The compound `CC(C)(C)c1cc(NC(=O)Nc2ccc(NC(=O)c3ccc(Cl)nc3)cc2)no1` [Compound N125] displayed a Kd of 1 to 10 µM.

Regarding `CC(C)(C)c1cc(NC(=O)Nc2ccc(NC(=O)c3c(Cl)cccc3Cl)cc2)no1` [Compound N94], the Kd is 0.1 to 1 µM.

`CC(C)(C)c1cc(NC(=O)Nc2ccc(OCc3ccccc3-c3ccccc3)cc2)no1` [Compound G8] came in with a Kd of 1 to 10 µM.

`COc1ccc(NC(=O)Nc2cc(C(C)(C)C)no2)cc1` [Compound A30] showed a Kd of 0.1 to 1 µM.

With `CC(C)(C)c1cc(NC(=O)Nc2ccc(NC(=O)c3cc(Cl)nc(Cl)c3)cc2)no1` [Compound N132], the equilibrium dissociation constant (Kd) was in the range of 1 to 10 µM.

In turn, `COc1nc(C)cc(C)c1C(=O)Nc1ccc(NC(=O)Nc2cc(C(C)(C)C)on2)cc1` [Compound N22] returned a Kd of 1 to 10 µM.

As for `CC(C)(C)c1cc(NC(=O)Nc2ccc(NC(=O)c3nccnc3C(N)=O)cc2)no1` [Compound N138], the dissociation constant (Kd) lay in the range of 0.1 to 1 µM.

Regarding `C=C/C(=C\C=C\Cl)NC(=O)Nc1ccc(C(=O)OCCOC)cc1` [Compound Z54], the Kd was 1 to 10 µM.

The compound `Cc1nnsc1C(=O)Nc1ccc(NC(=O)Nc2cc(C(C)(C)C)on2)cc1` [Compound N18] displayed a Kd of 1 to 10 µM.

For `CC(C)(C)c1cc(NC(=O)Nc2ccc(NC(=O)c3cccc4cccnc34)cc2)no1` [Compound N115], the Kd was < 0.1 µM.

Regarding `CC(C)(C)c1cc(NC(=O)Nc2ccc(OCCN3CCCCC3)cc2)no1` [Compound G50], the dissociation constant (Kd) is > 10 µM.

`CC(C)(C)c1cc(NC(=O)Nc2ccc(OCCN3CCOCC3)cc2)no1` [Compound G40]: the Kd fell in the range of 1 to 10 µM.

Turning to `CC(C)(C)c1cc(NC(=O)Nc2ccc(OCc3ccc(-c4ccccc4)cc3)cc2)no1` [Compound G56], the Kd lay in the range of 0.1 to 1 µM.

`CC(C)(C)c1cc(NC(=O)Nc2ccc(OCC(O)CO)cc2)no1` (centres unmarked) [Compound G28] registered a Kd of 0.1 to 1 µM.

As for `CC(C)(C)c1cc(NC(=O)Nc2ccc(NC(=O)C(N)Cc3ccccc3F)cc2)no1` (centres unmarked) [Compound N42], the Kd fell in the range of 1 to 10 µM.

As to `Cc1ccc(CNc2ccc(NC(=O)Nc3cc(C(C)(C)C)on3)cc2)cc1` [Compound O9], the Kd is 0.1 to 1 µM.

Regarding `Cc1cccnc1-c1noc(-c2ccc(NC(=O)Nc3cc(C(C)(C)C)on3)cc2)n1` [Compound P4], the Kd was 0.1 to 1 µM.

For `Cc1ccc(S(=O)(=O)Nc2ccc(NC(=O)Nc3cc(C(C)(C)C)on3)cc2)cc1` [Compound V2], the Kd lay within 1 to 10 µM.
